Assays:
[1] = for vapor or sublimation pressure: Transpiration method; for Triple point temperature: DSC; for Normal melting temperature: DTA
[2] = Molar enthalpy of transition or fusion; details: DSC

BrCC(Br)COc1c(Br)cc(Br)cc1Br (centres undefined) [1,3,5-tribromo(2,3-dibromopropoxy)benzene]
[1], Liquid
Details | vapor or sublimation pressure [kPa]
322.9 K | 1.9e-06
327.8 K | 3.2e-06
332.7 K | 5.5e-06
337.7 K | 9.6e-06
342.7 K | 1.7e-05
347.7 K | 2.7e-05
352.7 K | 4.3e-05
357.7 K | 6.7e-05
362.7 K | 0.00013
367.7 K | 0.00016

Details | Molar enthalpy of transition or fusion, [2] [kcal/mol] | Triple point temperature, [1] [K]
Crystal 1 | 0.612 | 313.7
Crystal 2 | 4.09 | 307.9

CCc1c(Br)c(Br)c(Br)c(Br)c1Br [pentabromoethylbenzene]
[1], Crystal
Details | vapor or sublimation pressure [kPa]
322.7 K | 3.7e-06
327.6 K | 6.1e-06
332.6 K | 1.04e-05
337.5 K | 1.7e-05
342.4 K | 3.2e-05
347.4 K | 4.9e-05
352.3 K | 8.3e-05
357.4 K | 0.00013
362.3 K | 0.00021
367.3 K | 0.00032

Crystal
Details | Molar enthalpy of transition or fusion [kcal/mol] | Normal melting temperature [°C]
[1] | – | 135.8
[2] | 3.2 | –

Cc1c(Br)c(Br)c(Br)c(Br)c1Br [pentabromomethylbenzene]
[1], Crystal
Details | vapor or sublimation pressure [kPa]
322.9 K | 2.7e-07
327.8 K | 5.1e-07
332.9 K | 9.1e-07
337.6 K | 1.62e-06
342.7 K | 2.9e-06
347.6 K | 5.5e-06
352.6 K | 9e-06
357.6 K | 1.5e-05
362.5 K | 2.7e-05
367.6 K | 4.2e-05

Crystal
Details | Molar enthalpy of transition or fusion [kcal/mol] | Normal melting temperature [°C]
[1] | – | 286
[2] | 7 | –

Cc1c(Br)c(Br)c(C)c(Br)c1Br [1,2,4,5-tetrabromodimethylbenzene]
[1], Crystal
Details | vapor or sublimation pressure [kPa]
322.8 K | 2.4e-06
327.7 K | 4.2e-06
332.7 K | 7.2e-06
337.5 K | 1.25e-05
342.5 K | 2.1e-05
347.5 K | 3.6e-05
352.4 K | 5.9e-05
357.5 K | 0.0001
362.4 K | 0.00016
367.4 K | 0.00025

Crystal
Details | Molar enthalpy of transition or fusion [kcal/mol] | Normal melting temperature [°C]
[1] | – | 254.2
[2] | 5.71 | –

Oc1c(Br)c(Br)c(Br)c(Br)c1Br [pentabromophenol]
[1], Crystal 2
Details | vapor or sublimation pressure [kPa]
322.9 K | 1.9e-07
327.8 K | 3.6e-07
332.8 K | 6.7e-07
337.7 K | 1.2e-06
342.6 K | 2.3e-06
347.6 K | 4.2e-06
352.6 K | 7.8e-06
357.6 K | 1.4e-05
362.6 K | 2.7e-05
367.4 K | 4.5e-05

Details | Molar enthalpy of transition or fusion, [2] [kcal/mol] | Triple point temperature, [1] [K]
Crystal 1 | 4.42 | 496.3
Crystal 2 | 2.82 | 416.2
